The record followed here is patent US20190225647A1, “ANTIGENIC PEPTIDES FOR THE DIAGNOSIS, THERAPY MONITORING AND/OR TREATMENT OF PSORIASIS VULGARIS” (Ludwig-Maximilians-Universität München, priority 2015, published 2019).

The test system of assay [1] is CD8+ T cells from psoriasis patients. The assay can be described thus: Staining of PBMC from psoriasis patients with FITC-labelled HLA-C*06:02-peptide dextramers. Format: binding, human. The conditions noted are these: flow cytometry. Here is the method:
We used FITC-labelled HLA-C*06:02-peptide dextramers to stain CD8^+ T cells from psoriasis patients. […] Thus, the peptides can be used in complex with HLA-C dextramers to address autoreactive T cells in blood of psoriasis patients. • Autoantigenic peptides complexed with HLA-C*06:02-multimers can be used to identify autoreactive CD8^+ T cells in psoriasis. […]
Fluorescent dextramers were prepared of HLA-C*06:02 and antigenic or control peptides. […] PBMC from psoriasis patients were incubated with standard dilutions of the HLA-C*06:02-peptide dextramers and a phycoerythrin-labelled CD8 antibody and the frequency of double stained cells subsequently determined by flow cytometry on a FACScan flow cytometer. Data were analyzed by FlowJo software 887.

The test system of the next assay is HLA-class I. The format is cell-based. Particulars: HLA-C*06:02-positive primary human melanocytes preincubated with IFN-γ. The source says: When assessing the results given below, however, it needs to be considered that the percentage of activated i.e. green-fluorescing cells in this complex cell-based recombinant assay may differ between different experiments. It may be influenced by the stability of the respective hybridoma cell batch and, in co-culture experiments, by the quantitative ratio of stimulatory and hybridoma cells, which decides the probability of cell-cell contacts (Siewert et al., 2011).
We isolated primary melanocytes from the skin and seeded them in explant culture. Cell type was confirmed by the contents of brownish melanosomes and staining with a p75-specific antibody against melanocytes. […] This effect was further enhanced, when HLA-C*06:02-positive melanocytes were preincubated with interferon (IFN)-γ, which increases the expression of HLA-class I molecules (FIG. 2C). […] TCR-hybridoma activation was HLA-restricted.
(B) TCR-hybridoma activation by HLA-C*06:02-positive (left) or HLA-C*06:02-negative (right) primary human melanocytes (MC) in the absence or presence of IFN-γ or a HLA-class I blocking antibody. Frequency of NFAT-sGFP^+ hybridoma cells was assessed by flow cytometry and normalized to the maximum value induced by CD3 activation in the same experiment. […]

As for “VRHDGGNVL [unrelated peptide (Falk et al., 1993), HLA-C*06:02 ligand, negative control complexed with HLA-C*06:02-dextramers]”, the “staining / binding of CD8+ blood T cells by HLA-C*06:02-peptide dextramers” value in assay [1] is given as “did not bind”.

B1: IFN-γ: interferon-γ, increases the expression of HLA-class I molecules (protein, UniProt P01579 24-161, looked up)
Interferon gamma: QDPYVKEAENLKKYFNAGHSDVADNGTLFLGILKNWKEESDRKIMQSQIVSFYFKLFKNFKDDQSIQKSVETIKEDMNVKFFNSNKKKRDDFEKLTNYSVTDLNVQRKAIHELIQVMAELSPAAKTGKRKRSQMLFRG
For the molecule B1, the “effect of IFN-γ addition on TCR-hybridoma activation” value in the assay on HLA-class I was “increased”.
